pIC50: −log10 of the molar value.
Assay: Inhibition of mouse Sky kinase assessed as inhibition of src substrate phosphorylation by ELISA

First: O=C(c1cc2cc(Cl)ccc2[nH]1)N1C[C@]2(CCN(C3CCNCC3)C2)c2ccccc21
Second: O=C(c1cc2cc(Cl)ccc2[nH]1)N1C[C@]2(CCN(C3CCNC3)C2)c2ccccc21 (stereo partly drawn)
The pIC50 of the first is 1.25 log units lower: 5.06 for the first, 6.31 for the second. The second is the more potent here.

First: COc1ccc2cc(C(=O)N3C[C@]4(CCN(C5CCNC5)C4)c4ccccc43)[nH]c2c1 (stereo partly drawn)
Second: COc1ccc2[nH]c(C(=O)N3C[C@]4(CCN(C5CCNC5)C4)c4ccccc43)cc2c1 (stereo partly drawn)
The pIC50 of the first is 0.23 log units lower: 6.07 for the first, 6.30 for the second.

O=C(c1cc2c(Cl)cccc2[nH]1)N1C[C@]2(CCN(C3CCNC3)C2)c2ccccc21 (stereo partly drawn) and O=C(c1cc2ccc(F)cc2[nH]1)N1C[C@]2(CCN(C3CCNC3)C2)c2ccccc21 (stereo partly drawn) are within 0.2 log units of each other in pIC50: 6.25 for the first, 6.22 for the second.

Going from CN1CCC(N2CC[C@]3(CN(C(=O)c4cc5cc(F)ccc5[nH]4)c4ccccc43)C2)CC1 to O=C(c1cc2cc(F)ccc2[nH]1)N1C[C@]2(CCN(C3CCCCC3)C2)c2ccccc21, the pIC50 falls from 5.54 to 4.55 (0.99 log units).

O=C(c1cc2cc(Cl)ccc2[nH]1)N1C[C@]2(CCN(C3CCCNC3)C2)c2ccccc21 (stereo partly drawn) and Cc1ccc2[nH]c(C(=O)N3C[C@]4(CCN(C5CCNC5)C4)c4ccccc43)cc2c1 (stereo partly drawn) are within 0.2 log units of each other in pIC50: 5.98 for the first, 6.09 for the second.

Going from NC(=O)c1ccc2cc(C(=O)N3C[C@]4(CCN(C5CCNC5)C4)c4ccccc43)[nH]c2c1 (stereo partly drawn) to N#Cc1ccc2cc(C(=O)N3C[C@]4(CCN(C5CCNC5)C4)c4ccccc43)[nH]c2c1 (stereo partly drawn), the pIC50 rises from 5.66 to 5.95 (0.29 log units).

Compared with O=C(c1cc2cc(F)ccc2[nH]1)N1C[C@]2(CCN(CC3CCCNC3)C2)c2ccccc21 (stereo partly drawn), O=C(c1cc2cc(F)ccc2[nH]1)N1C[C@]2(CCN(C3CNC3)C2)c2ccccc21 is 0.38 log units higher in pIC50: 5.36 for the first, 5.74 for the second. The second is the more potent here.

Going from CCN1CCCC(N2CC[C@]3(CN(C(=O)c4cc5cc(F)ccc5[nH]4)c4ccccc43)C2)C1 (stereo partly drawn) to C[C@@H]1CCC(N2CC[C@]3(CN(C(=O)c4cc5ccc(F)cc5[nH]4)c4ccccc43)C2)CN1 (stereo partly drawn), the pIC50 rises from 5.31 to 6.72 (1.41 log units). The second is the more potent here.

First: Cc1ccc(N2CC[C@@]3(C2)CN(C(=O)c2cc4cc(F)ccc4[nH]2)c2ccccc23)cn1
Second: C[C@@H]1CCC(N2CC[C@]3(CN(C(=O)c4cc5ccccc5[nH]4)c4ccccc43)C2)CN1 (stereo partly drawn)
The pIC50 of the first is 2.19 log units lower: 4.42 for the first, 6.61 for the second.

— BindingDB's records for doi:10.1016/j.bmcl.2011.11.036 (Pfizer, 2011)
